For one assay, the target named is T1, LATS1 (Homo sapiens, UniProt O95835).
T1 sequence (O95835 1-1130): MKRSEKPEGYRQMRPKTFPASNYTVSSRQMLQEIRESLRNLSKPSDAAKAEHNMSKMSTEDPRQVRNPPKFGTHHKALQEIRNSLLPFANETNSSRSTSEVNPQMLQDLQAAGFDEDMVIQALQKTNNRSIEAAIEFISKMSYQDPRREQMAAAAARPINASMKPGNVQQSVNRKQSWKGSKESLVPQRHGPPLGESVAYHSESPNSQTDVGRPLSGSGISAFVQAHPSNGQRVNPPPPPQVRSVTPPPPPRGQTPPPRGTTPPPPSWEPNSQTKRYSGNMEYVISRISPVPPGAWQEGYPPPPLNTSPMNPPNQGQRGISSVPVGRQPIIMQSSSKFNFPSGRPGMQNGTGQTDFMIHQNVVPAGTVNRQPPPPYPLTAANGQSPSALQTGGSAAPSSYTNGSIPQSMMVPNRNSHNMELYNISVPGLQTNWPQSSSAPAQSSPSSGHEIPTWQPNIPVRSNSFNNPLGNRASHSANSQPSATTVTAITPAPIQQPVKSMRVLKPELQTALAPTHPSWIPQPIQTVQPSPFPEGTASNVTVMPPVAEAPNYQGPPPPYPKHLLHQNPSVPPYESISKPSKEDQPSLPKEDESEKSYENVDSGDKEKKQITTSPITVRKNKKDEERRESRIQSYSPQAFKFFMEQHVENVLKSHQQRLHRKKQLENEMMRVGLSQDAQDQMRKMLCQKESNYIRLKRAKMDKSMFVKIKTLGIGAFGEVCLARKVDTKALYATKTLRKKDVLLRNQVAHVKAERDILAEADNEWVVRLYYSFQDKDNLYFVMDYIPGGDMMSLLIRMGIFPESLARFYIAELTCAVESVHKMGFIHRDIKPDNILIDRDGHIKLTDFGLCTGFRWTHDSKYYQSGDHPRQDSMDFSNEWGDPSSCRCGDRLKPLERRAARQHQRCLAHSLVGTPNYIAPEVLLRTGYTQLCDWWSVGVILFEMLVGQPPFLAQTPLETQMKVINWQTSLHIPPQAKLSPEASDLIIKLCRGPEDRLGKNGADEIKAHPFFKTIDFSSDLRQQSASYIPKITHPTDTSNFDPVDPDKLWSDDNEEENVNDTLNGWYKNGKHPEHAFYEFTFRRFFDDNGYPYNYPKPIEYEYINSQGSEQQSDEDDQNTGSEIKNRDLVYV
In words: RBC HotSpot kinase assay (33P-ATP, P81 filter-binding), LATS1. The following applies: read-out: LATS1 IC50. The class given is biochemical. The gist of the method: (§1)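 Hepes pH 7.5/MgCl2/EGTA/Brij35/BSA/Na3VO4/DTT buffer, cofactors per kinase; cpd acoustically dispensed, 20 min preinc RT; start w/ 33P-ATP, 2 h RT; P81 filter readout; 10-pt singlet IC50.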

For the next assay, the target named is T2, LATS2 (Homo sapiens, UniProt Q9NRM7).
T2 sequence (Q9NRM7 1-1088): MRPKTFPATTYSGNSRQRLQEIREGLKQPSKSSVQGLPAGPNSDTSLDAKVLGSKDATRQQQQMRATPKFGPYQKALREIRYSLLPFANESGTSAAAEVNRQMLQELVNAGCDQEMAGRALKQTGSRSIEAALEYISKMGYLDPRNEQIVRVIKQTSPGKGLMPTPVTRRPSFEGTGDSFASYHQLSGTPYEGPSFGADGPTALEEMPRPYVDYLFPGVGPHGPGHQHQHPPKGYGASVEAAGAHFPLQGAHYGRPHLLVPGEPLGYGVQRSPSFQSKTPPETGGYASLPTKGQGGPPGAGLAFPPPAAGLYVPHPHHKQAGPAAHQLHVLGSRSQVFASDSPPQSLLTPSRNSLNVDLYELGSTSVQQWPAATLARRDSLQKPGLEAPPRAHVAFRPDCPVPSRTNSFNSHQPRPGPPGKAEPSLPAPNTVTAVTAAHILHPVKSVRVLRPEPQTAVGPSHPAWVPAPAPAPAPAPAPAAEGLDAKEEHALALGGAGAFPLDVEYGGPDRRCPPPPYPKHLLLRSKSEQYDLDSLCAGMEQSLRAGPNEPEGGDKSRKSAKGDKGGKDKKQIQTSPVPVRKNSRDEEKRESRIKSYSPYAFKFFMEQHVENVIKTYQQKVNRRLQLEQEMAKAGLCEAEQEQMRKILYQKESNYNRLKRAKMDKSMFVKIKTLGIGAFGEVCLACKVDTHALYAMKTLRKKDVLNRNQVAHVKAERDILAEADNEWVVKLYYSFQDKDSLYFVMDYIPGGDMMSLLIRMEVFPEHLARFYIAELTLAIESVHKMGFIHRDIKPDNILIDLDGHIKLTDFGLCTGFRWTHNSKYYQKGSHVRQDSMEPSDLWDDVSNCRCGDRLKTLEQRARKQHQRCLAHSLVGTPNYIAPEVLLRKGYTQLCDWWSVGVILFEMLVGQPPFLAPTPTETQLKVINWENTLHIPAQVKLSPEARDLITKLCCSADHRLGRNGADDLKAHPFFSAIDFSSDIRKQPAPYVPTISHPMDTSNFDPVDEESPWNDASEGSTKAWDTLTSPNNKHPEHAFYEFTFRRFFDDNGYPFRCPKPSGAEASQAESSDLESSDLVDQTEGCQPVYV
In words: RBC HotSpot kinase assay (33P-ATP, P81 filter-binding), LATS2. It counts as biochemical. To be noted: read-out: LATS2 IC50. The gist of the method:
as §1

Where [1] appears, read: Table 28, biochemical kinase assay.
The mark [2] stands for this setting: Table 32, biochemical kinase assay.

Where two headings read alike, the source gives them in different places.

A word on the IC50: it is the point on the concentration scale where inhibition reaches its midpoint. Regarding `Cc1cc(-c2ccnc3[nH]cc(F)c23)cc(F)c1[C@@]1(O)[C@H](C)CN(C(C)C)C[C@@H]1C` [Compound 305, (3S,4s,5R)-4-(2-fluoro-4-(3-fluoro-1H-pyrrolo[2,3-b]pyridin-4-yl)-6-methylphenyl)-1-isopropyl-3,5-dimethylpiperidin-4-ol], the IC50 at LATS1 (setting [1]) was 4.1 nM; at LATS2 (setting [1]), 3.7 nM.

With `COC(=O)c1c[nH]c2nccc(-c3cc(C)c([C@@]4(O)[C@H](C)CN(C5CCS(=O)(=O)CC5)C[C@@H]4C)c(F)c3)c12` [Compound 309, methyl 4-(4-((3S,4s,5R)-1-(1,1-dioxidotetrahydro-2H-thiopyran-4-yl)-4-hydroxy-3,5-dimethylpiperidin-4-yl)-3-fluoro-5-methylphenyl)-1H-pyrrolo[2,3-b]pyridine-3-carboxylate], the IC50 is 3.1 nM at LATS1 (setting [1]) and 3 nM at LATS2 (setting [1]).

With `COC(=O)c1c[nH]c2nccc(-c3cc(C)c([C@@]4(O)[C@H](C)CN(C(=O)CN)C[C@@H]4C)c(F)c3)c12` [Compound 310, methyl 4-(3-fluoro-4-((3S,4s,5R)-1-glycyl-4-hydroxy-3,5-dimethylpiperidin-4-yl)-5-methylphenyl)-1H-pyrrolo[2,3-b]pyridine-3-carboxylate], the IC50 at LATS1 (setting [1]) is 5.1 nM; on LATS2 (setting [1]), 2.3 nM.

On to `Cc1cc(-c2ccnc3[nH]cc(F)c23)cc(F)c1[C@@]1(O)[C@H](C)CN(C(=O)[C@H](N)CO)C[C@@H]1C` [Compound 312, (R)-2-amino-1-((3S,4R,5R)-4-(2-fluoro-4-(3-fluoro-1H-pyrrolo[2,3-b]pyridin-4-yl)-6-methylphenyl)-4-hydroxy-3,5-dimethylpiperidin-1-yl)-3-hydroxypropan-1-one], for which the IC50 on LATS1 (setting [1]) stood at 8.1 nM; on LATS2 (setting [1]), 3.5 nM.

For the compound `Cc1cc(-c2ccnc3[nH]cc(F)c23)cc(F)c1[C@@]1(O)[C@H](C)CN(C(=O)[C@@H](CO)N(C)C)C[C@@H]1C` [Compound 313, (R)-2-(dimethylamino)-1-((3S,4S,5R)-4-(2-fluoro-4-(3-fluoro-1H-pyrrolo[2,3-b]pyridin-4-yl)-6-methylphenyl)-4-hydroxy-3,5-dimethylpiperidin-1-yl)-3-hydroxypropan-1-one], the IC50 on LATS1 (setting [1]) was determined as 4.4 nM; on LATS2 (setting [1]), 1.6 nM.

As to `OC1(c2ccc(-c3ccnc4[nH]cc(F)c34)cc2)CC2(CNC2)C1` [Compound 319, 6-(4-(3-fluoro-1H-pyrrolo[2,3-b]pyridin-4-yl)phenyl)-2-azaspiro[3.3]heptan-6-ol], the results for the IC50 on LATS1 (setting [1]) and at LATS2 (setting [1]) were 66 nM and 29.3 nM, respectively.

In the case of `NCC(O)(c1ccc(Cl)cc1)c1ccc(-c2ccnc3[nH]ccc23)cc1` (stereo not shown) [Compound 1001, 1-(4-(1H-pyrrolo[2,3-b]pyridin-4-yl)phenyl)-2-amino-1-(4-chlorophenyl)ethan-1-ol], the IC50 at LATS1 (setting [2]) amounted to 1.8 nM; at LATS2 (setting [2]), 2.1 nM.

As for `NCC(O)(c1ccc(Cl)cc1)c1ccc(-c2ccnc3[nH]cc(F)c23)cc1` (stereo not shown) [Compound 1002, 2-amino-1-(4-chlorophenyl)-1-(4-(3-fluoro-1H-pyrrolo[2,3-b]pyridin-4-yl)phenyl)ethan-1-ol], the 50% inhibitory concentration (IC50) came out at 5.7 nM at LATS1 (setting [2]) and 11.1 nM on LATS2 (setting [2]).

Regarding `COC(=O)c1c[nH]c2nccc(-c3ccc(C(O)(CN)c4ccc(Cl)cc4)cc3)c12` (stereo not shown) [Compound 1004, Methyl 4-(4-(2-amino-1-(4-chlorophenyl)-1-hydroxyethyl)phenyl)-1H-pyrrolo[2,3-b]pyridine-3-carboxylate], the IC50 on LATS1 (setting [2]) was found to be 4 nM; on LATS2 (setting [2]), 5.3 nM.

For the compound `NCC(O)(c1ccc(Cl)cc1)c1ccc(-c2ccnc3[nH]cc(Br)c23)cc1` (stereo not shown) [Compound 1005, 2-amino-1-(4-(3-bromo-1H-pyrrolo[2,3-b]pyridin-4-yl)phenyl)-1-(4-chlorophenyl)ethan-1-ol], the IC50 at LATS1 (setting [2]) is 5.1 nM; on LATS2 (setting [2]) it was 8.9 nM.

For `NCC(O)(c1ccc(Cl)cc1)c1ccc(-c2ccnc3[nH]cc(-c4ccccc4)c23)cc1` (stereo not shown) [Compound 1006, 2-amino-1-(4-chlorophenyl)-1-(4-(3-phenyl-1H-pyrrolo[2,3-b]pyridin-4-yl)phenyl)ethan-1-ol], the IC50 turned out to be 23 nM on LATS1 (setting [2]) and 20 nM on LATS2 (setting [2]).

Consider `NCC(O)(c1ccc(Cl)cc1)c1ccc(-c2ccnc3[nH]cc(-c4cccnc4)c23)cc1` (stereo not shown) [Compound 1007, 2-amino-1-(4-chlorophenyl)-1-(4-(3-(pyridin-3-yl)-1H-pyrrolo[2,3-b]pyridin-4-yl)phenyl)ethan-1-ol], for which the IC50 on LATS1 (setting [2]) amounted to 4.3 nM; on LATS2 (setting [2]), 6.1 nM.

Consider `NCC(O)(c1ccc(Cl)cc1)c1ccc(-c2ccnc3[nH]cc(Br)c23)nc1` (stereo not shown) [Compound 1011, 2-amino-1-(6-(3-bromo-1H-pyrrolo[2,3-b]pyridin-4-yl)pyridin-3-yl)-1-(4-chlorophenyl)ethan-1-ol], for which the IC50 on LATS1 (setting [2]) is 0.9 nM; at LATS2 (setting [2]), below 0.5 nM.

With `NCC(=O)NCC(O)(c1ccc(Cl)cc1)c1ccc(-c2ccnc3[nH]cc(Cl)c23)cc1` (stereo not shown) [Compound 1021, 2-amino-N-(2-(4-(3-chloro-1H-pyrrolo[2,3-b]pyridin-4-yl)phenyl)-2-(4-chlorophenyl)-2-hydroxyethyl) acetamide], the IC50 at LATS1 (setting [2]) came to 3.7 nM; on LATS2 (setting [2]), 1.6 nM.

For `Cc1cc(-c2ccnc3[nH]cc(C#N)c23)cc(F)c1[C@@]1(O)[C@H](C)CN(C2CCS(=O)(=O)CC2)C[C@@H]1C` [Compound 2002, 4-(4-((3S,4s,5R)-1-(1,1-dioxidotetrahydro-2H-thiopyran-4-yl)-4-hydroxy-3,5-dimethylpiperidin-4-yl)-3-fluoro-5-methylphenyl)-1H-pyrrolo[2,3-b]pyridine-3-carbonitrile], the values for the IC50 on LATS1 (biochemical kinase inhibition) and at LATS2 (biochemical kinase inhibition) were 10.9 nM and 4.6 nM, respectively.

Take `Cc1cc(-c2ccnc3[nH]cc(C#N)c23)cc(F)c1[C@@]1(O)[C@H](C)CN(C(=O)CN)C[C@@H]1C` [Compound 2004, 4-(3-fluoro-4-((3S,4s,5R)-1-glycyl-4-hydroxy-3,5-dimethylpiperidin-4-yl)-5-methylphenyl)-1H-pyrrolo[2,3-b]pyridine-3-carbonitrile]: the half-inhibitory concentration (IC50) on LATS1 (biochemical kinase inhibition) was found to be 6.7 nM; on LATS2 (biochemical kinase inhibition) it was 2 nM.

For the compound `Cc1cc(-c2ccnc3[nH]cc(C#N)c23)ccc1[C@@]1(O)[C@H](C)CN(C(=O)CN)C[C@@H]1C` [Compound 2005, 4-(4-((3S,4s,5R)-1-glycyl-4-hydroxy-3,5-dimethylpiperidin-4-yl)-3-methylphenyl)-1H-pyrrolo[2,3-b]pyridine-3-carbonitrile], the IC50 at LATS1 (biochemical kinase inhibition) was determined as 3.3 nM; at LATS2 (biochemical kinase inhibition), 1.2 nM.

Values taken from patent US20250361230A1, “LATS Inhibitors and Uses Thereof” (The USA, as Represented by the Secretary, Dept. of Heath …, priority 2022, published 2025).
